Source: ChEMBL document CHEMBL1201862, “PubChem BioAssay data set” (2004)
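Grown in 96-well plates, cells were treated for 48 hours with each compound at five concentrations. Insufficient inhibition: endpoint recorded as highest concentration tested. GI50 is the concentration that inhibits growth by half.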 Calls of active or inactive are those of the source. Cut-off read from the data, not from the text of the source: active = GI50 up to about 1.1 µM and inactive = higher.

How the values were obtained:
Assay in all cases: NCI-60 cell line screen, 48 h
[1] = system: M14
[2] = system: UACC-62
[3] = system: RPMI-8226
[4] = system: SK-MEL-5
[5] = system: UO-31
[6] = system: CAKI-1
[7] = system: 786-0
[8] = system: OVCAR-8
[9] = system: KM12
[10] = system: U-251
[11] = system: NCI/ADR-RES
[12] = system: SK-MEL-2
[13] = system: HCT-15
[14] = system: HCC 2998
[15] = system: TK-10
[16] = system: CCRF-CEM
[17] = system: SN12C
[18] = system: RXF 393
[19] = system: SR
[20] = system: SF-539

SMILES	GI50 [1]	GI50 [2]	GI50 [3]	GI50 [4]	GI50 [5]	GI50 [6]	GI50 [7]	GI50 [8]	GI50 [9]	GI50 [10]	GI50 [11]	GI50 [12]	GI50 [13]	GI50 [14]	GI50 [15]	GI50 [16]	GI50 [17]	GI50 [18]	GI50 [19]	GI50 [20]
c1ccc2c(c1)C(=Nc1ccc(N=C3c4ccccc4-c4ccccc43)cc1)c1ccccc1-2	> 100 µM (inactive)	> 100 µM (inactive)	> 100 µM (inactive)	> 100 µM (inactive)	> 100 µM (inactive)	> 100 µM (inactive)	> 100 µM (inactive)	> 100 µM (inactive)	> 100 µM (inactive)	> 100 µM (inactive)	> 100 µM (inactive)	> 100 µM (inactive)	> 100 µM	> 100 µM (inactive)	> 100 µM (inactive)	> 100 µM (inactive)	> 100 µM (inactive)	> 100 µM (inactive)		
CSc1ncnc2c1ncn2CC(=O)C1CCC2C3CCC4=CC(=O)CCC4(C)C3CCC12C (centres undefined)	2.4 µM (inactive)	3.21 µM (inactive)	1.45 µM (inactive)	2.04 µM (inactive)	0.757 µM (active)	10 µM (inactive)	11 µM (inactive)	3.53 µM (inactive)	2.84 µM (inactive)	7.62 µM (inactive)	2.5 µM (inactive)	2.98 µM (inactive)	4.56 µM		4.46 µM (inactive)	0.729 µM (active)	18.3 µM (inactive)	12 µM (inactive)	2.16 µM (inactive)	8.41 µM (inactive)
CCCCCCN(CCCCCC)CCC(=O)c1ccc2cc(Br)c3ccccc3c2c1	82.6 µM (inactive)	25.8 µM (inactive)	9.31 µM (inactive)	26.1 µM (inactive)	26.7 µM (inactive)	66.7 µM (inactive)	24.9 µM (inactive)	31.7 µM (inactive)	11.5 µM (inactive)	36.2 µM (inactive)	48.5 µM (inactive)	27.3 µM (inactive)	33.8 µM	41.3 µM (inactive)	26.4 µM (inactive)		34 µM (inactive)	20.7 µM (inactive)	0.318 µM (active)	21.3 µM (inactive)
O=C(/C(=N/Nc1cn[nH]c(=O)c1Cl)c1ccccc1)c1ccccc1	46.8 µM (inactive)	16 µM (inactive)	24.6 µM (inactive)	28.2 µM (inactive)	22.6 µM (inactive)	19.7 µM (inactive)	16 µM (inactive)	36.1 µM (inactive)	12.8 µM (inactive)	26.9 µM (inactive)	17.5 µM (inactive)	46 µM (inactive)	12.6 µM	26.9 µM (inactive)	24.9 µM (inactive)	32.4 µM (inactive)	27.4 µM (inactive)	0.326 µM (active)		22.6 µM (inactive)
COC(=O)CCc1ccc2c(c1)CC1(C2)Cc2ccc(CCC(=O)OC)cc2C1	> 100 µM (inactive)	> 100 µM (inactive)	28.4 µM (inactive)	24 µM (inactive)	> 100 µM (inactive)		> 100 µM (inactive)	60.1 µM (inactive)	> 100 µM (inactive)	40.1 µM (inactive)	> 100 µM (inactive)	> 100 µM (inactive)	> 100 µM	> 100 µM (inactive)	> 100 µM (inactive)	15.6 µM (inactive)	68.5 µM (inactive)	> 100 µM (inactive)	29.4 µM (inactive)	> 100 µM (inactive)
COc1cc(/C=C2\CC3C4CC=C5C[C@@H](O)CC[C@]5(C)C4CC[C@]3(C)\C2=N\O)cc(OC)c1OC (some centres undefined)	10.5 µM (inactive)	9.06 µM (inactive)	10.4 µM (inactive)	4.4 µM (inactive)	2.28 µM (inactive)	3.94 µM (inactive)	4.66 µM (inactive)	8.45 µM (inactive)	2.54 µM (inactive)	6.28 µM (inactive)	7.6 µM (inactive)	4.07 µM (inactive)	3.88 µM	6.34 µM (inactive)	7.53 µM (inactive)	6.44 µM (inactive)	7.13 µM (inactive)	3.61 µM (inactive)		6.25 µM (inactive)
COC(c1ccc(C(C)(C)C)cc1)(c1ccc(C(C)(C)C)cc1)c1ccc(C(C)(C)C)cc1	70.5 µM (inactive)	> 100 µM (inactive)	> 100 µM (inactive)	> 100 µM (inactive)	> 100 µM (inactive)	> 100 µM (inactive)	> 100 µM (inactive)	> 100 µM (inactive)	> 100 µM (inactive)	> 100 µM (inactive)	> 100 µM (inactive)	> 100 µM (inactive)	> 100 µM	> 100 µM (inactive)	> 100 µM (inactive)	> 100 µM (inactive)	> 100 µM (inactive)		> 100 µM (inactive)	> 100 µM (inactive)
N#CC12CC=C(c3ccccc3)N=C1NC(c1ccccc1)=CC2 (centres undefined)	42.1 µM (inactive)	86.7 µM (inactive)	28.8 µM (inactive)	19 µM (inactive)	40.3 µM (inactive)		> 100 µM (inactive)	48.2 µM (inactive)	51.5 µM (inactive)	85.1 µM (inactive)	53.5 µM (inactive)	56.4 µM (inactive)	69.7 µM	> 100 µM (inactive)	> 100 µM (inactive)	32.2 µM (inactive)	> 100 µM (inactive)	> 100 µM (inactive)	29.9 µM (inactive)	> 100 µM (inactive)
CN(CC(=O)O)c1ncc2c(n1)-c1ccccc1CC2	> 100 µM (inactive)	> 100 µM (inactive)	> 100 µM (inactive)	> 100 µM (inactive)	> 100 µM (inactive)	> 100 µM (inactive)	> 100 µM (inactive)	> 100 µM (inactive)	> 100 µM (inactive)	> 100 µM (inactive)	> 100 µM (inactive)	> 100 µM (inactive)	> 100 µM		> 100 µM (inactive)	> 100 µM (inactive)	> 100 µM (inactive)	> 100 µM (inactive)	> 100 µM (inactive)	> 100 µM (inactive)
CC(=O)OCC1OC(n2nc(Cc3ccccc3)c(=S)[nH]c2=S)C(OC(C)=O)C(OC(C)=O)C1OC(C)=O (centres undefined)	19.4 µM (inactive)	18.5 µM (inactive)		82 µM (inactive)	4.9 µM (inactive)	30.7 µM (inactive)	35.2 µM (inactive)	23.6 µM (inactive)	20.5 µM (inactive)	22.1 µM (inactive)	> 100 µM (inactive)	17.7 µM (inactive)	19.4 µM		57.8 µM (inactive)		21.5 µM (inactive)	22.9 µM (inactive)	31.2 µM (inactive)	24.9 µM (inactive)
COc1ccc(-c2nc(N)c(C#N)c3c2CCS(=O)(=O)c2ccc(C)cc2-3)cc1OC	28.4 µM (inactive)	15.2 µM (inactive)		20.7 µM (inactive)	30.8 µM (inactive)	27 µM (inactive)	29 µM (inactive)	74.3 µM (inactive)	19.4 µM (inactive)	40.6 µM (inactive)	43.7 µM (inactive)	16.2 µM (inactive)	16.1 µM	27.6 µM (inactive)	56.1 µM (inactive)		50.2 µM (inactive)		0.252 µM (active)	
CN(C)CCCn1c2ccccc2c2cnccc21	16.6 µM (inactive)	40.4 µM (inactive)	26.7 µM (inactive)	19.7 µM (inactive)	17.5 µM (inactive)	38.7 µM (inactive)	27.7 µM (inactive)	55.3 µM (inactive)	43.2 µM (inactive)	39.1 µM (inactive)	36.1 µM (inactive)	45.5 µM (inactive)	43.7 µM		26.8 µM (inactive)	45.7 µM (inactive)	17.1 µM (inactive)	57.4 µM (inactive)	19.2 µM (inactive)	20.6 µM (inactive)
CC(C)CCCC(C)[C@H]1CC[C@H]2n3c(nc4ccccc43)CCC[C@]12C (some centres undefined)	16.2 µM (inactive)	16.2 µM (inactive)	10.8 µM (inactive)	16.4 µM (inactive)	14.3 µM (inactive)	17.1 µM (inactive)	17.5 µM (inactive)	17.1 µM (inactive)	19.7 µM (inactive)	19.2 µM (inactive)	18.2 µM (inactive)	17.2 µM (inactive)	15 µM		17.4 µM (inactive)	18.3 µM (inactive)	15.9 µM (inactive)	16.4 µM (inactive)	15.8 µM (inactive)	18.8 µM (inactive)
Cc1ccc(/N=N\c2c(O)ccc3cc(S(=O)(=O)O)ccc23)cc1	> 100 µM (inactive)	> 100 µM (inactive)	> 100 µM (inactive)	> 100 µM (inactive)	> 100 µM (inactive)	> 100 µM (inactive)	> 100 µM (inactive)	> 100 µM (inactive)	> 100 µM (inactive)	> 100 µM (inactive)	> 100 µM (inactive)	> 100 µM (inactive)	> 100 µM	> 100 µM (inactive)	> 100 µM (inactive)	> 100 µM (inactive)	> 100 µM (inactive)	> 100 µM (inactive)		> 100 µM (inactive)
CSCCCNC(=O)c1csc(-c2csc(CCNC(=O)CNC(=O)CNC(=O)OC(C)(C)C)n2)n1	> 100 µM (inactive)	> 100 µM (inactive)		> 100 µM (inactive)	> 100 µM (inactive)	> 100 µM (inactive)	> 100 µM (inactive)	> 100 µM (inactive)	> 100 µM (inactive)	> 100 µM (inactive)	> 100 µM (inactive)	> 100 µM (inactive)	> 100 µM	> 100 µM (inactive)	> 100 µM (inactive)	> 100 µM (inactive)	> 100 µM (inactive)	> 100 µM (inactive)	> 100 µM (inactive)	> 100 µM (inactive)
